Experimental data taken from publication PMC7503713, “GANT61 Reduces Hedgehog Molecule (GLI1) Expression and Promotes Apoptosis in Metastatic Oral Squamous Cell Carcinoma Cells” (International Journal of Molecular Sciences, 2020).

Assays:
NOF = assay: alamarBlue cytotoxicity assay, normal oral fibroblasts NOF; type: cell-based; details: Homo sapiens, Fibroblast, 72 h of incubation
Procedure: For comparative analysis, primary cultures of normal oral fibroblasts (NOF) were isolated from fragments of healthy patient gingiva, using the same technique previously described for CAFs above, and then maintained in culture for up to 15 passages.
(§1) To assess the cytotoxicity of the GLI inhibitor GANT61 (Sigma-Aldrich, St. Louis, MO, USA) in tumor and non-tumor cell lines, an alamarBlue assay (Sigma-Aldrich Chemical Co, St. Louis, MO, USA) was performed after 72 h of exposure to the inhibitor, as described by Ahmed et al., 1994 [46]. Cells were distributed on 96-well plates at a density of 7 × 10^4 cells/mL for adhered cells, and 3 × 10^5 cells/mL for cells in suspension. All tested compounds were dissolved in DMSO, added to wells containing 100 µL of cells in complete medium, and then incubated for 72 h. […] Absorbance was measured at 570 nm (reduced) and 595 nm (oxidized) wavelengths, using a Spectramax 190 plate reader (Molecular Devices; Sunnyvale, CA, USA).
(§2) Statistical analyses were performed, using GraphPad Prism v. […] Data were analyzed according to distribution along the normal Gaussian curve. […] Differences between groups resulting from in vitro assays were evaluated by ANOVA (analysis of variance) testing, followed by the Student–Newman–Keuls test. […]

PTCH1 protein = assay: Western blot of HH pathway proteins in HSC3 cells, PTCH1; type: cell-based, human; details: HSC3, 18 and 36 µM, 24 h
Procedure: After culturing, HSC3 cells were washed with PBS and denatured by using cell lysis buffer containing 50 mM Tris-HCl (pH 7.4), 1% Triton X-100, 150 mM NaCl, 0.5 mM EGTA, 0.5 EDTA mM, and an anti-protease cocktail (Complete Pro-inhibitor Cocktail Tablets, Roche, Basel, Switzerland). Protein extracts (50 μg) were separated by SDS-PAGE and transferred to Hybond-C Extra (GE Healthcare, Chicago, IL, USA) nitrocellulose membranes. The following antibodies were used in the Western blot assay: mouse […] against Sonic Hedgehog (1:500, Clone 5 H4, Cat. number NBP2-22126, Novus Biologicals, Centennial, CO, USA), rabbit polyclonal against Gli1 (1:500, Novus Biologicals, Cat. number NB600-600), rabbit polyclonal against Patched 1 (1:500, Novus Biologicals, Cat.number NB200-118), and rabbit polyclonal against Smoothened (1:1000, Cat. number AB72130, Abcam, Cambridge, MA, USA). The secondary antibodies were anti-mouse IgG (1:10,000, Santa Cruz Biotechnology, Santa Cruz, CA, USA) and anti-rabbit IgG (1:10,000, GE Healthcare, Chicago, IL, USA). Signal detection was performed by using an ECL + Chemiluminescence Detection System (PerkinElmer, Villebon sur-Yvette, France). The antibody actin (1:10000, Cat. Number15 G5 A11/E2, Invitrogen, Carlsbad, CA, USA) was selected as an endogenous control for analysis of HH pathway component expression in HSC3 cells. […]

AGP01 = assay: alamarBlue cytotoxicity assay, AGP01; type: cell-based, human; details: 72 h of incubation
Procedure: as §1, with “h. Eight concentrations of GANT61 (0.19 to 50 µg/mL), Doxorubicin (Laboratory IMA S.A.I.C., Buenos Aires, Argentina), and 5-Fluorouracil (5-FU, Sigma-Aldrich, St. Louis, MO, USA), both used as positive controls at concentrations ranging from 0.03 to 5 µg/mL, were added to respective wells.” for “h.”
as §2

GLI2 mRNA = assay: qPCR of HH pathway gene expression in HSC3 cells, GLI2; type: cell-based, human; details: HSC3, 18 and 36 µM, 12 h, not significant
Procedure: For total RNA isolation, HSC3 cells were plated on 6-well plates, at a density of 0.7 × 10^5 cells/mL (5 mL/well volume), and incubated overnight, followed by treatment with the GLI inhibitor for 12 h at both concentrations (18 and 36 µM).
All experiments were carried out under DNAse/RNAse-free conditions. Silica microcolumns were used for RNA extraction, using an RNeasy Plus Mini Kit (QIAGEN, Hilden, Germany). Extracted RNA was analyzed for quantity and purity, using a NanoDrop®® 1000 spectrophotometer (Thermo Fisher Scientific, Waltham, MA, USA).
Reverse transcription was performed by using Superscript VILO™ transcriptase enzyme (Invitrogen, Carlsbad, CA, USA). The cDNA samples were stored at −20 °C, until the time of use.
HH pathway component expression was evaluated in cells treated or not with GANT61 by qPCR, using TaqMan Gene Expression Assays^TM inventoried for the PTCH1 (Hs00181117_m1), GLI1 (Hs01110766_m1), GLI2 (Hs01119974_m1), and GLI3 (Hs00609233_m1) genes, as well as for B2 M (Hs99999907_m1). […]
Following amplification and dissociation runs, quantification cycle (Cq) values were obtained by using the ViiA7^TM System Operational Program (AppliedByosistems, Foster City, CA, USA). For relative quantification, the comparative method (2−∆∆Cq) described by Livak and Schmittgen, 2001 was used. […]

Structure (SMILES) | IC50 (NOF) [µM] | PTCH1 protein expression (PTCH1 protein) | IC50 (AGP01) [µM] | mRNA expression of GLI2 (GLI2 mRNA)
O=c1[nH]cc(F)c(=O)[nH]1 [5-FU, 5-fluorouracil] | 39.6 | – | – | –
CN(C)c1ccccc1CN1CCCN(Cc2ccccc2N(C)C)C1c1ccncc1 [GANT61] | – | reduced levels | > 116 | Reductions in mRNA expression
